Assay results from BindingDB's records for doi:10.1021/bi500959t (University of Western Ontario, 2015).

Key:
[1] = target: T1, Ribosyldihydronicotinamide dehydrogenase [quinone] (Homo sapiens, UniProt P16083); experiment: Inhibition of Steady-State Catalysis Assay
T1 sequence (P16083 whole entry): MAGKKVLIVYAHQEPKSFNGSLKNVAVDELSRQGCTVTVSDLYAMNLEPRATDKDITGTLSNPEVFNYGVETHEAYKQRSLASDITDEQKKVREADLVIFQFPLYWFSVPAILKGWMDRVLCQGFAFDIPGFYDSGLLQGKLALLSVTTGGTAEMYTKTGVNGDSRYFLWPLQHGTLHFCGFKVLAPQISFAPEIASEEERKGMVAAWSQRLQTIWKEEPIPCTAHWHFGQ
Procedure: To determine the IC50 value of each inhibitor, reactions were initiated by addition of 154 pM NQO2 to a reaction buffer containing 150 μM SCDP and 5 μM menadione with TBB (0.625−640 μM), TBBz (2.5−640 nM), or DMAT (2.5−640 nM).

[2] = target: T1, Ribosyldihydronicotinamide dehydrogenase [quinone]; experiment: Fluorescence Titration Assay
Procedure: To assess direct binding of inhibitors to oxidized NQO2 (NQO2ox), fluorescence quenching of FAD was monitored with an excitation wavelength of 350 nm and an emission wavelength of 430 nm. NQO2 (775 or 38.75 nM) was titrated with the indicated concentrations of TBB, TBBz, and DMAT.

Brc1c(Br)c(Br)c2[nH]nnc2c1Br
IC50 [1]: 12800 nM | Kd [2]: 7110 nM

CN(C)c1nc2c(Br)c(Br)c(Br)c(Br)c2[nH]1 [2-(dimethylamino)-4,5,6,7-tetrabromo-1H-benzimidazole]
IC50 [1]: 484 nM | Kd [2]: 36.4 nM

Brc1c(Br)c(Br)c2[nH]cnc2c1Br [4,5,6,7-tetrabromo-1H-benzimidazole]
IC50 [1]: 79.4 nM | Kd [2]: 18.1 nM
